From patent US6376508B1, “Treatments for spinal muscular atrophy” (priority 2000, dated 2002)
“Also recorded” adds a separate entry of the source.

Columns and labels:
[1] = tested on: SMA-like mice (progeny of hSMN2 Smn+/- intercross); assay: In utero treatment of SMA-like mice (pregnant mice from hSMN2 Smn+/- intercross); type: in vivo, mouse
Method: To evaluate the therapeutic effect of sodium butyrate for severely affected SMA mice, the test compound was administered to pregnant mice from an hSMN2 Smn^+/− intercross. The number mice born with SMA-like phenotypes were counted and classified according to type. In one case, 4-8 μg/day sodium butyrate was administered to pregnant mice from a hSMN2 Smn^+/− intercross ad libitum in their drinking water beginning from 15 day post-coitum until parturition (Table 1).

exon 7 of the SMN2 gene = assay: RT-PCR analysis of SMN exon 7 expression in EBV transformed lymphoid cell lines of SMA patients; type: cell-based, human
[2] = tested on: SMA-like mice (hSMN2 Smn-/-); assay: Treatment of types 2 and 3 SMA-like mice via drinking water; type: in vivo, mouse
Text: To generate hSMN2 Smn^−/− mice, hSMN2 Smn^+/− mice were crossed to Smn^+/− mice. Progeny lacking the murine SMN locus were identified by genotyping. The presence of the hSMN2 transgene was also confirmed.
These mice frequently developed chronic necrosis of the tail tip, muscular atrophy, subcutaneous edema in hindlimbs, and paralysis of hindlimbs. Type 3 mice survived and bred normally. The mild symptoms of these mice include short but enlarged tails.
The effect of sodium butyrate on the symptoms of SMA-like mice were investigated. Sodium butyrate was administered to ten SMA-like mice with type 2 symptoms and ten SMA-like mice with type 3 symptoms. These mice were identified at birth by genotype and phenotype. Thereafter, their drinking water was supplemented with a 0.8 μg/ml or an 8 μg/ml solution of sodium butyrate. The drinking water was available ad libitum. The amount of sodium butyrate taken by SMA-like mice was estimated to be approximate 4-80 μg/day. The survival time of sodium butyrate-treated type 2 SMA-like mice was longer, about 4 to 5 days longer on average, than untreated mice.
The effect of sodium butyrate administration on the tail phenotype of SMA-like mice was also monitored. The tails of untreated types 2 and 3 SMA-like mice have decreased diameter of muscle fibers, atrophy of muscle bundles, group atrophy and subcutaneous edema (Hsieh-Li et al. (2000) supra). […] The tail of a treated mouse was about 5 cm long on average, whereas the tail of an untreated mouse was about 1 cm long. Remarkably, the average length of the tail of treated mice, 5 cm, is close to the average length for wild-type mice, 6 cm.

[3] = tested on: exon 7-containing SMN protein; assay: Western-blot analysis (H2 and H7 antibodies) of SMN protein in SMA patient lymphoid cell lines; type: cell-based, human; details: cytosolic and nuclear fractions, 4 hours stimulation, 0.5 ng/ml to 5 μg/ml
Method: Lymphoid cells were isolated from SMA patients with different degrees of severity. Whole blood was drawn from the patients, heparinized, then diluted 1:1 with PBS (phosphate buffered saline). The diluted sample was layered on a Ficoll-Hypaque gradient, and centrifuge at 2500 rpm for 30 minutes at room temperature. The buffy coat was collected from the centrifuged sample, washed twice with 5 ml PBS, collected, and resuspended in 5 ml RPMI medium, 0.5 ml Epstein-Barr virus (EBV stock), 50 μl PHA, and 50 μl of cyclosporine (0.2 mg/ml). The virus-treated sample was mixed well and transferred into a T-flask for incubation at 37° C. in a 5% CO2 incubator for 3 weeks.
Rabbits were immunized with synthetic peptides containing either human SMN amino acids 279-288 from exon 7 or amino acids 72-84 from exon 2. Specific antibodies (H7 and H2 batches) were purified from rabbit crude sera with an EAH-sepharose 4B column (Pharmacia) according to the manufacturer's instructions.
Protein samples, prepared from treated and untreated SMA lymphoid cells, were loaded on a 5% polyacrylamide stacking gel above a 12% separating gel, and the gel was run with a discontinuous buffer using Laemmli's method. […] The secondary antibody was detected with a 1.5% solution of 5-bromo-4-chloro-3-indoyl phosphate and 3% nitro blue tetrazolium in a developing buffer (100 mM NaCl, 5 mM MgCl2, 100 mM Tris.HCl, pH 9.5). […]

[4] = treated mothers, 4-8 μg/day from 15 day post-coitum until parturition (untreated 10%)
[5] = treated mothers, 4-8 μg/day from 15 day post-coitum until parturition, 294 total pups

Structure (SMILES): CCCC(=O)[O-].[Na+] [sodium butyrate]
- symptoms of progeny from treated mothers vs progeny from untreated mothers ([1]; higher dose, 40-80 μg/day): milder symptoms
- percent of pups with Type 2 symptoms ([1]; treated mothers, 4-8 μg/day from 15 day post-coitum until parturition (untreated 5%)): 7%
- percent of pups with Type 1 symptoms [1, 4]: 7%
- percent of pups with Type 3 symptoms [1, 4]: 16%
- number of pups with Type 2 symptoms [1, 5]: 22
- number of pups with Type 3 symptoms [1, 5]: 48
- number of pups with Type 1 symptoms ([1]; treated mothers, 4-8 μg/day in drinking water from 15 day post-coitum until parturition, 294 total pups): 21
- splicing of SMN2 transcripts (exon 7 of the SMN2 gene; RT-PCR, treated vs untreated cells): changed to include exon 7
- amount of exon 7-containing SMN mRNA (exon 7 of the SMN2 gene; lymphoid cells cultured with 5 ng/ml to 50 μg/ml): increased
- time of greatest increase of exon 7-containing SMN mRNA after addition of the drug (exon 7 of the SMN2 gene; lymphoid cells, 5 ng/ml to 50 μg/ml): 4 h
- level of full-length SMN mRNA transcript (exon 7 of the SMN2 gene; relative to untreated control, lymphoid cells from all three types of SMA patients): increased levels of full-length SMN transcript; also recorded: increase
- tail histopathology relative to untreated SMA-like mice ([2]; treated SMA-like mice): fewer atrophied muscle bundles, less group atrophy, and reduced subcutaneous edema
- frequency of chronic necrosis originating at the tip of the tail ([2]; treated SMA-like mice (untreated 50%)): 2%
- tail length on average ([2]; treated type 3 SMA-like mice (untreated about 1 cm, wild-type 6 cm)): about 5 cm
- survival time longer than untreated mice, on average ([2]; type 2 SMA-like mice, drinking water 0.8 or 8 μg/ml, approx. 4-80 μg/day): 4 to 5 days
- tail phenotype ([2]; type 3 SMA-like mice): close to wild-type
- exon 7-containing SMN protein levels in tissues ([2]; western blot and immunohistochemistry, multiple tissues including spinal cord motor neurons): elevated
- amount of intact (exon 7-containing) SMN protein [3]: increase
